2 substances from patent US4760023A, “[21-leucine] human urogastrone, corresponding gene, corresponding recombinant plasmid, transformed cell and process for production thereof” (Wakunaga Seiyaku Kabushiki Kaisha, priority 1983, dated 1988) can be followed below.

The target in assay [1] is T1, KB cell EGF receptor (Homo sapiens, UniProt P00533).
T1 construct: endogenous in cells; host or cells: KB cells (ATCC No. CCL17), intact cells in suspension
The assay is described as follows: Radioreceptor assay (RRA) using KB cells, competition with 125I-mEGF. It counts as binding. Conditions: FIG. 2. The protocol:
RRA of [21-L] hUG was carried out using KB cells (ATCC No. CCL17) derived from a human nasopharyngeal epidermoid carcinoma in the light of the process of A. King et al [see J.B.C., 257, 3053 (1982)]. More specifically, monolayer culturing was carried out in DME medium in a 800-ml flask. The culture medium was removed, and cells were peeled with a phosphate buffer salt solution (PBS) containing 0.05% of EDTA to prepare a cell suspension. Then, the cells were washed 2 times with Hank's balanced salt solution (HBSS) containing 20 mM Hepes (pH 7.4). Then, the cells were suspended in a binding solution (DME medium, 20 mM Hepes, pH 7.4, 0.35 g/l of NaHCO3 and 100 μg/ml of Streptomycin), and the cell number was calculated and the cell density was adjusted to from 300,000 to 400,000 per 0.2 ml of the binding solution. The suspension was poured into tubes (0.2 ml in each tube), and 0.2 ml each of sample containing [21-L] hUG and ^125 I-mEGF (mouse EGF) at various concentrations were added into the tubes, respectively. Incubation was carried out at 37° C. for 1 hour. The cells were washed 3 times with ice-cold HBSS and suspended in 10% TCA, and the cells were separated from the solution by filtration through a glass filter. TCA was removed with acetone, and counting of radioactivity associated with the cells was performed by using a scintillation counter. […]

Assay [2] addresses T2, mouse 3T3 cell (Mus musculus, UniProt Q01279).
T2 construct: endogenous in cells; host or cells: mouse 3T3 cells
The assay is described as follows: RRA using mouse 3T3 cell. It counts as binding. The protocol: RPA using mouse 3T3 cell was carried out according to the process of C.

For assay [3], the system named is mouse 3T3 cells. The assay is described as follows: Bioassay of activity promoting proliferation of mouse 3T3 cells (viable cell count). The assay is classed as cell-based. The conditions noted are these: 4 days, 0.5% FBS-DME, FIG. 3. On the procedure:
The activity of promoting proliferation of cells was determined by the following procedure. More specifically, monolayer culturing of mouse 3T3 cells was carried out in a 25-cm^2 flask, and the cells were treated with calcium- and magnesium-free HBSS (CMF-HBSS) containing 0.02% of EDTA and 0.05% of trypsin to prepare cell suspensions. The cells were washed with CMF-HBSS and resuspended in DME medium containing 0.5% of fetal bovine serum (FBS), and the number of viable cells was counted. The cell suspension was diluted with 0.5% FBS-DME medium so that the cell number was 2×10^4 per ml. Then, 1 ml of the cell suspension was seeded per 35 mm dish and incubation was carried out overnight in a CO2 incubator. Peptide fractions containing different concentrations of [21-L] hUG and mEGF as a control were dissolved in 0.5% FBS-DME medium and the mixtures were filtered by a Millipore filter (type GV, wpo 2500), and 1 ml aliquots of the mixtures were added to the above cell suspension. Incubation was carried out for 4 days in a CO2 incubator (5% CO2 -95% air, 37° C.). Viable cells were stained with Trypan Blue, and the number of the viable cells was counted using a counting chamber. […]

Assay [4] concerns mouse 3T3 cells. The assay is described as follows: Bioassay of activity stimulating thymidine incorporation. Conditions: for 3H-Thymidine In-take Amount cpm: 18 hours; for 3H-Thymidine In-take Amount Δcpm: minus no addition. It counts as cell-based. The protocol: Incorporation of thymidine was determined according to a modification of the method of Aharon Aharonov et al [J.B.C., 253, 3970 (1978)] and the method of Jimenez de Asua et al [PNAS, 72, 2724 (1975)]. More specifically, 6×10^3 of mouse 3T3 cells were seeded in 0.5 ml of 5% FBS-DME medium in a multi-well dish, and culturing was done for 5 days to grow as monolayers to sub-confluency. The medium was removed, and the cells were washed with PBS, and 0.5 ml of 0.5% FBS-DME medium was added. Incubation was done overnight. Then, 0.5 ml of 0.5% FBS-DME medium containing [21-L] hUG at a predetermined concentration or mEGF was added, and incubation was further continued for 18 hours. Then, 200 nci of [^3 H]-thymidine was added, and incubation was carried out at 55° C. for 30 minutes. The cells were washed twice with cold HBSS containing 20 mM Hepes (pH 7.4) and washed twice with 5% TCA. Then, 200 μl of 1N NaOH was added, and incubation was carried out at 55° C. for 30 minutes to dissolve DNA. Then, 50 μl of the DNA solution was taken and 25 μl of 2N HCl was added for neutralization. The radio-activity of Thymidine was measured by means of a liquid scintillation counter.

The subject of assay [5] is ulcer caused by ligation of the pylorus. The assay is described as follows: Inhibitory effect on generation of stomach ulcer (pylorus ligation). It counts as in vivo, rats of the Wister strain. The conditions noted are these: rat. The protocol: The inhibitory effect of [21-L] hUG on generation of ulcer was examined on the basis of the activity of EGF of anti-gastric acid secretion [Gut, 16, 887 (1975)].
7-weeks-old male rats of the Wister strain were bred and caused to fast for 24 hours before ligation of the pylorus. The pylorus was ligated for 17 hours, and ulcer was caused by fasting and abstinence from drinking. The peptide fraction containing [21-L] hUG (corresponding to 500 μg of the protein) or physiological saline as a control was hypodermically injected 30 minutes before ligation of the pylorus. Each group tested consisted of 5 rats, and the anti-ulcer action was evaluated by calculating the ulcer index. More specifically, the long and short diameters of the olcerous erosion generated by ligation of the pylorus were measured under an anatomical microscope, and the sum of products of the long and short diameters per rat was defined as the ulcer coefficient.

As to “[21-leucine] human urogastrone (NSDSECPLSHDGYCLHDGVCLYIEALDKYACNCVVGYIGERCQYRDLKWWELR; Epidermal growth factor; UniProt P01133 971-1023, looked up, variant M21L) [[21-L] hUG, 53-residue polypeptide, same as hUG except that the 21st amino acid is Leu; produced in E. coli, released by cyanogen bromide]”, the “inhibition of binding of 125I-mEGF to the KB cell EGF receptor” value in assay [1] (37° C., 1 hour) was “competitively inhibits binding”. The “dosage-response curve in RRA compared with mEGF” value in assay [1] is on record as “in good agreement with that of mEGF”. Also, the “RRA result using mouse 3T3 cell” value in assay [2] was “results similar to the results obtained in RRA using KB cell”. Further, the “dose-response curve of cell proliferation compared with mEGF” value in assay [3] is given as “in good agreement with the curve for mEGF”. The “3H-Thymidine In-take Amount cpm” value in assay [4] (0.73 μg/ml) is reported as 17,170.8 cpm; in assay [4] (1.46 μg/ml), 11,761.7 cpm; in assay [4] (2.93 μg/ml), 13,567.0 cpm. Further, the “3H-Thymidine In-take Amount Δcpm” value is recorded as 12,531.3 cpm in assay [4] (0.73 μg/ml), 7,122.2 cpm in assay [4] (1.46 μg/ml) and 8,927.5 cpm in assay [4] (2.93 μg/ml). Besides, the “thymidine incorporation (in words)” value in assay [4] (mouse 3T3 cells) is “promotes greatly thymidine incorporation”. In assay [5] (500 μg of the protein hypodermically 30 minutes before ligation, pylorus ligated 17 hours), the “Ulcer Coefficient” value is recorded as 44.5 ± 18.0 mm^2. In addition, in assay [5] (pylorus ligation), the “generation of the ulcer (in words)” value is given as “tends to inhibit generation of the ulcer”.
Take “mouse epidermal growth factor (NSYPGCPSSYDGYCLNGGVCMHIESLDSYTCNCVIGYSGDRCQTRDLRWWELR; not fully specified; Epidermal growth factor; UniProt P01132 977-1029, looked up) [mEGF, mEGF (Toyobo, Japan), used for comparison]”: the “3H-Thymidine In-take Amount cpm” value in assay [4] (1 ng/ml) is listed as 14,510.5 cpm; in assay [4] (2 ng/ml), 13,387.4 cpm; in assay [4] (5 ng/ml) it was 14,695.2 cpm; in assay [4] (10 ng/ml) it was 14,094.6 cpm. For the same substance, the “3H-Thymidine In-take Amount Δcpm” value was 9,871.0 cpm in assay [4] (1 ng/ml), 8,747.9 cpm in assay [4] (2 ng/ml), 10,055.7 cpm in assay [4] (5 ng/ml) and 9,455.1 cpm in assay [4] (10 ng/ml).
